Experimental data published in patent US11752120B2, “Use of succinic acid in increasing sensitivity of bacteria to antibiotics” (SUN YAT-SEN UNIVERSITY, priority 2018, dated 2023).

Key:
E. coli K12 = experiment: Minimum inhibitory concentration (MIC), NCCLS method, control strain; assay type: cell-based, Escherichia coli; conditions: no unit in table, MIC in μg/mL
From the text: (§1) Escherichia coli (E. coli) are one of the most common bacteria in the clinic. 30 strains of E. coli obtained from the clinic were named YT1-30. The minimum inhibitory concentrations (MIC) of 8 antibiotics against these 30 clinically obtained E. coli was detected according to the NCCLS method, and E. coli K12 was used as a control.

[1] = system: clinical Escherichia coli YT1-30; experiment: Minimum inhibitory concentration (MIC), NCCLS method, 30 clinical strains; assay type: cell-based; design: Minimum inhibitory concentration (MIC): unit not given here
From the text: as §1

| Compound | Minimum inhibitory concentration (MIC) (E. coli K12) | Minimum inhibitory concentration (MIC) ([1]; strain YT1) | Minimum inhibitory concentration (MIC) ([1]; strain YT2) | Minimum inhibitory concentration (MIC) ([1]; strain YT3) | Minimum inhibitory concentration (MIC) ([1]; strain YT4) | Minimum inhibitory concentration (MIC) ([1]; strain YT5) | Minimum inhibitory concentration (MIC) ([1]; strain YT6) | Minimum inhibitory concentration (MIC) ([1]; strain YT7) | Minimum inhibitory concentration (MIC) ([1]; strain YT8) | Minimum inhibitory concentration (MIC) ([1]; strain YT9) | Minimum inhibitory concentration (MIC) ([1]; strain YT10) | Minimum inhibitory concentration (MIC) ([1]; strain YT11) | Minimum inhibitory concentration (MIC) ([1]; strain YT12) | Minimum inhibitory concentration (MIC) ([1]; strain YT13) | Minimum inhibitory concentration (MIC) ([1]; strain YT14) | Minimum inhibitory concentration (MIC) ([1]; strain YT15) | Minimum inhibitory concentration (MIC) ([1]; strain YT16) | Minimum inhibitory concentration (MIC) ([1]; strain YT17) | Minimum inhibitory concentration (MIC) ([1]; strain YT18) | Minimum inhibitory concentration (MIC) ([1]; strain YT19) | further results |
| --- | --- | --- | --- | --- | --- | --- | --- | --- | --- | --- | --- | --- | --- | --- | --- | --- | --- | --- | --- | --- | --- |
| CC[C@H]1OC(=O)[C@H](C)[C@@H](O[C@H]2C[C@@](C)(OC)[C@@H](O)[C@H](C)O2)[C@H](C)[C@@H](O[C@@H]2O[C@H](C)C[C@H](N(C)C)[C@H]2O)[C@](C)(O)C[C@@H](C)/C(=N\OCOCCOC)[C@H](C)[C@@H](O)[C@]1(C)O [Roxithromycin] | 9.765 | 39.0625 | 625 | 625 | 156.25 | 625 | 625 | 625 | 625 | 625 | 625 | 625 | 625 | 625 | 2500 | 2500 | 625 | 625 | 625 | 625 | Minimum inhibitory concentration (MIC) ([1]; strain YT20): 625; Minimum inhibitory concentration (MIC) ([1]; strain YT21): 625; Minimum inhibitory concentration (MIC) ([1]; strain YT22): 625; Minimum inhibitory concentration (MIC) ([1]; strain YT23): 625; Minimum inhibitory concentration (MIC) ([1]; strain YT24): 625; Minimum inhibitory concentration (MIC) ([1]; strain YT25): 625; Minimum inhibitory concentration (MIC) ([1]; strain YT26): 625; Minimum inhibitory concentration (MIC) ([1]; strain YT27): 625; Minimum inhibitory concentration (MIC) ([1]; strain YT28): 2500; Minimum inhibitory concentration (MIC) ([1]; strain YT29): 625; Minimum inhibitory concentration (MIC) ([1]; strain YT30): 156.25 |
| CN(C)[C@@H]1C(O)=C(C(N)=O)C(=O)[C@@]2(O)C(O)=C3C(=O)c4c(O)cccc4[C@@](C)(O)[C@H]3C[C@@H]12 [Tetracycline] | 1.526 | 6.1 | 24.414 | 97.656 | 390.625 | 390.625 | 97.656 | 97.656 | 97.656 | 97.656 | 97.656 | 97.656 | 6250 | 6250 | 6250 | 6250 | 6250 | 6250 | 1562.5 | 1562.5 | Minimum inhibitory concentration (MIC) ([1]; strain YT20): 1562.5; Minimum inhibitory concentration (MIC) ([1]; strain YT21): 1562.5; Minimum inhibitory concentration (MIC) ([1]; strain YT22): 1562.5; Minimum inhibitory concentration (MIC) ([1]; strain YT23): 1562.5; Minimum inhibitory concentration (MIC) ([1]; strain YT24): 1562.5; Minimum inhibitory concentration (MIC) ([1]; strain YT25): 6.103; Minimum inhibitory concentration (MIC) ([1]; strain YT26): 97.656; Minimum inhibitory concentration (MIC) ([1]; strain YT27): 97.656; Minimum inhibitory concentration (MIC) ([1]; strain YT28): 390.625; Minimum inhibitory concentration (MIC) ([1]; strain YT29): 390.625; Minimum inhibitory concentration (MIC) ([1]; strain YT30): 390.625 |
| Gentamicin | 0.61 | 2.441 | 156.25 | 156.25 | 9.765 | 625 | 156.25 | 625 | 625 | 156.25 | 625 | 2500 | 2500 | 2500 | 2500 | 2500 | 2500 | 2500 | 2.441 | 625 | Minimum inhibitory concentration (MIC) ([1]; strain YT20): 156.25; Minimum inhibitory concentration (MIC) ([1]; strain YT21): 2500; Minimum inhibitory concentration (MIC) ([1]; strain YT22): 2500; Minimum inhibitory concentration (MIC) ([1]; strain YT23): 156.25; Minimum inhibitory concentration (MIC) ([1]; strain YT24): 625; Minimum inhibitory concentration (MIC) ([1]; strain YT25): 2500; Minimum inhibitory concentration (MIC) ([1]; strain YT26): 2500; Minimum inhibitory concentration (MIC) ([1]; strain YT27): 625; Minimum inhibitory concentration (MIC) ([1]; strain YT28): 2500; Minimum inhibitory concentration (MIC) ([1]; strain YT29): 625; Minimum inhibitory concentration (MIC) ([1]; strain YT30): 39.0625 |
| CNC1CCCN(c2c(F)cc3c(=O)c(C(=O)O)cn(C4CC4)c3c2OC)C1 (stereo not shown) [Balofloxacin] | 0.015 | 0.244 | 3.906 | 15.625 | 250 | 250 | 62.5 | 15.625 | 250 | 250 | 15.625 | 3.906 | 62.5 | 62.5 | 15.625 | 15.625 | 250 | 250 | 62.5 | 62.5 | Minimum inhibitory concentration (MIC) ([1]; strain YT20): 62.5; Minimum inhibitory concentration (MIC) ([1]; strain YT21): 15.625; Minimum inhibitory concentration (MIC) ([1]; strain YT22): 62.5; Minimum inhibitory concentration (MIC) ([1]; strain YT23): 15.625; Minimum inhibitory concentration (MIC) ([1]; strain YT24): 15.625; Minimum inhibitory concentration (MIC) ([1]; strain YT25): 0.244; Minimum inhibitory concentration (MIC) ([1]; strain YT26): 15.625; Minimum inhibitory concentration (MIC) ([1]; strain YT27): 15.625; Minimum inhibitory concentration (MIC) ([1]; strain YT28): 15.625; Minimum inhibitory concentration (MIC) ([1]; strain YT29): 15.625; Minimum inhibitory concentration (MIC) ([1]; strain YT30): 15.625 |
| NCC[C@H](O)C(=O)N[C@@H]1C[C@H](N)[C@@H](O[C@H]2O[C@H](CN)[C@@H](O)[C@H](O)[C@H]2O)[C@H](O)[C@H]1O[C@H]1O[C@H](CO)[C@@H](O)[C@H](N)[C@H]1O [Amikacin] | 0.61 | 9.765 | 9.765 | 9.765 | 9.765 | 9.765 | 9.765 | 9.765 | 9.765 | 2.441 | 39.0625 | 2500 | 2500 | 2500 | 2500 | 2500 | 2500 | 2500 | 2.441 | 9.76 | Minimum inhibitory concentration (MIC) ([1]; strain YT20): 2.441; Minimum inhibitory concentration (MIC) ([1]; strain YT21): 2500; Minimum inhibitory concentration (MIC) ([1]; strain YT22): 625; Minimum inhibitory concentration (MIC) ([1]; strain YT23): 9.765; Minimum inhibitory concentration (MIC) ([1]; strain YT24): 9.765; Minimum inhibitory concentration (MIC) ([1]; strain YT25): 2500; Minimum inhibitory concentration (MIC) ([1]; strain YT26): 2500; Minimum inhibitory concentration (MIC) ([1]; strain YT27): 9.765; Minimum inhibitory concentration (MIC) ([1]; strain YT28): 2500; Minimum inhibitory concentration (MIC) ([1]; strain YT29): 9.765; Minimum inhibitory concentration (MIC) ([1]; strain YT30): 2.441 |
| CC(C)(O/N=C(\C(=O)N[C@@H]1C(=O)N2C(C(=O)[O-])=C(C[n+]3ccccc3)CS[C@H]12)c1csc(N)n1)C(=O)O [Ceftazidime] | 0.122 | 0.122 | 0.488 | 0.488 | 0.488 | 7.81 | 1.953 | 0.488 | 0.488 | 0.488 | 7.812 | 7.812 | 0.488 | 0.488 | 0.488 | 0.488 | 0.488 | 0.488 | 0.488 | 0.488 | MIC compared with the control E. coli K12 ([1]; strain YT1): the same as the control; Minimum inhibitory concentration (MIC) ([1]; strain YT20): 0.122; Minimum inhibitory concentration (MIC) ([1]; strain YT21): 0.488; Minimum inhibitory concentration (MIC) ([1]; strain YT22): 0.488; Minimum inhibitory concentration (MIC) ([1]; strain YT23): 0.488; Minimum inhibitory concentration (MIC) ([1]; strain YT24): 7.812; Minimum inhibitory concentration (MIC) ([1]; strain YT25): 31.25; Minimum inhibitory concentration (MIC) ([1]; strain YT26): 31.25; Minimum inhibitory concentration (MIC) ([1]; strain YT27): 0.488; Minimum inhibitory concentration (MIC) ([1]; strain YT28): 31.25; Minimum inhibitory concentration (MIC) ([1]; strain YT29): 7.812; Minimum inhibitory concentration (MIC) ([1]; strain YT30): 7.812 |
